Activity calls are given as the source filed them. No cut-off for these calls is given here.
How the values were obtained:
[1] = system: HCT-116; assay: Decrease in spermine level in human HCT116 cells at 2.5 to 10 uM after 24 hrs by G1321A fluorescence detector coupled HPLC analysis; assay type: functional, cell-based
[2] = system: HCT-116; assay: Downregulation of Akt protein expression in human HCT116 cells up to 10 uM after 24 hrs by Western blot method; assay type: functional, cell-based
[3] = system: HCT-116; assay: Upregulation of cleaved caspase-8 protein expression in human HCT116 cells up to 10 uM after 24 hrs in presence of autophagy inhibitor 3-MA by Western blot method; assay type: functional, cell-based
[4] = system: HCT-116; assay: Induction of apoptosis in human HCT116 cells assessed as late apoptotic cells at 10 uM after 24 hrs in presence of pan-caspase inhibitor Z-VAD-FMK by annexin V-FITC/propidium iodide staining based flow cytometry (reference value: 2.03%); assay type: functional
[5] = system: HCT-116; assay: Induction of apoptosis in human HCT116 cells assessed as necrotic cells at 10 uM after 24 hrs by annexin V-FITC/propidium iodide staining based flow cytometry (reference value: 3.9%); assay type: functional
[6] = system: HCT-116; assay: Upregulation of SSAT protein expression in human HCT116 cells at 2.5 to 10 uM after 24 hrs by Western blot method; assay type: functional, cell-based
[7] = system: HCT-116; assay: Induction of apoptosis in human HCT116 cells assessed as necrotic cells at 10 uM after 24 hrs in presence of autophagy inhibitor 3-MA by annexin V-FITC/propidium iodide staining based flow cytometry (reference value: 3.9%); assay type: functional
[8] = system: HCT-116; assay: Induction of apoptosis in human HCT116 cells assessed as necrotic cells at 10 uM after 24 hrs in presence of pan-caspase inhibitor Z-VAD-FMK by annexin V-FITC/propidium iodide staining based flow cytometry (reference value: 3.9%); assay type: functional
[9] = system: HCT-116; assay: Downregulation of mTOR protein expression in human HCT116 cells after 24 hrs by Western blot method; assay type: functional, cell-based
[10] = system: HCT-116; assay: Induction of autophagy in human HCT116 cells at 5 to 20 uM after 24 hrs in presence of pan-caspase inhibitor Z-VAD-FMK by Lyso staining based flow cytometry; assay type: functional, cell-based
[11] = system: CT26; assay: Induction of autophagy in mouse CT26 cells at 5 to 20 uM after 24 hrs by Lyso staining based flow cytometry; assay type: functional, cell-based
[12] = system: HCT-116; assay: Downregulation of MMP2 protein expression in human HCT116 cells after 24 hrs by Western blot method; assay type: functional, cell-based
[13] = system: HCT-116; assay: Induction of apoptosis in human HCT116 cells assessed as live cells at 10 uM after 24 hrs by annexin V-FITC/propidium iodide staining based flow cytometry (reference value: 89.97%); assay type: functional
[14] = system: CT26; assay: Induction of apoptosis in mouse CT26 cells assessed as early apoptotic cells after 24 hrs by annexin V-FITC/propidium iodide staining based flow cytometry; assay type: functional, cell-based
[15] = system: CT26; assay: Antitumor activity against mouse CT26 cells implanted in Balb/c mouse assessed as solid tumor growth inhibition at 1 mg/kg, iv for 14 consecutive days measured on day 15 relative to control; assay type: functional; settings: 360 h, read-out: TGI
[16] = system: CT26; assay: Growth inhibition of mouse CT26 cells after 24 hrs by MTT assay; assay type: functional, cell-based
[17] = system: Mus musculus; assay: Toxicity in Balb/c mouse implanted with mouse CT26 cells assessed as changes in body weight at 1 mg/kg, iv for 7 consecutive days starting from day 8 post tumor implantation; assay type: organism-based; settings: in vivo
[18] = system: CT26; assay: Induction of apoptosis in mouse CT26 cells assessed as early apoptotic cells at 10 uM after 24 hrs in presence of autophagy inhibitor 3-MA by annexin V-FITC/propidium iodide staining based flow cytometry (reference value: 3.91%); assay type: functional
[19] = system: CT26; assay: Induction of apoptosis in mouse CT26 cells assessed as necrotic cells at 10 uM after 24 hrs by annexin V-FITC/propidium iodide staining based flow cytometry (reference value: 4.36%); assay type: functional
[20] = system: HCT-116; assay: Downregulation of p62 protein expression in human HCT116 cells after 24 hrs by Western blot method; assay type: functional, cell-based
[21] = Drug uptake in human HCT116 cells by confocal microscopic method; assay type: ADME, cell-based; settings: hct-116
[22] = system: CT26; assay: Induction of apoptosis in mouse CT26 cells assessed as late apoptotic cells after 24 hrs by annexin V-FITC/propidium iodide staining based flow cytometry; assay type: functional, cell-based
[23] = system: HCT-116; assay: Downregulation of cathepsin-D protein expression in human HCT116 cells after 24 hrs by Western blot method; assay type: functional, cell-based
[24] = system: HCT-116; assay: Downregulation of Bcl2 protein expression in human HCT116 cells up to 10 uM after 24 hrs by Western blot method; assay type: functional, cell-based
[25] = system: HCT-116; assay: Induction of autophagy in human HCT116 cells after 24 hrs by MDC staining based flow cytometry; assay type: functional, cell-based
[26] = system: HCT-116; assay: Upregulation of cleaved caspase-8 protein expression in human HCT116 cells up to 10 uM after 24 hrs by Western blot method; assay type: functional, cell-based
[27] = system: HCT-116; assay: Downregulation of Akt protein expression in human HCT116 cells up to 10 uM after 24 hrs in presence of autophagy inhibitor 3-MA by Western blot method; assay type: functional, cell-based
[28] = system: HCT-116; assay: Upregulation of p53 protein expression in human HCT116 cells after 24 hrs by Western blot method; assay type: functional, cell-based
[29] = system: K562; assay: Growth inhibition of human K562 cells after 48 hrs by MTT assay; assay type: functional, cell-based; settings: K562, 48 h
[30] = system: HCT-116; assay: Induction of apoptosis in human HCT116 cells assessed as early apoptotic cells after 24 hrs by annexin V-FITC/propidium iodide staining based flow cytometry; assay type: functional, cell-based
[31] = system: CT26; assay: Antimetastatic activity against mouse CT26 cells implanted in Balb/c mouse assessed as inhibition of pulmonary metastasis nodules at 1 mg/kg, iv for 7 consecutive days starting from day 8 post tumor implantation measured on day 15 post tumor implantation relative to control; assay type: functional
[32] = system: CT26; assay: Induction of apoptosis in mouse CT26 cells after 24 hrs by acridine orange and ethidium bromide staining based high content screening analysis; assay type: functional, cell-based
[33] = system: CT26; assay: Induction of apoptosis in mouse CT26 cells assessed as late apoptotic cells at 10 uM after 24 hrs by annexin V-FITC/propidium iodide staining based flow cytometry (reference value: 2.26%); assay type: functional
[34] = system: HCT-116; assay: Induction of autophagy in human HCT116 cells at 5 to 20 uM after 24 hrs in presence of autophagy inhibitor 3-MA by MDC staining based flow cytometry; assay type: functional, cell-based
[35] = system: HCT-116; assay: Downregulation of beta-catenin protein expression in human HCT116 cells after 24 hrs by Western blot method; assay type: functional, cell-based
[36] = system: CT26; assay: Induction of autophagy in mouse CT26 cells after 24 hrs by MDC staining based flow cytometry; assay type: functional, cell-based
[37] = system: Mus musculus; assay: Toxicity in Balb/c mouse implanted with mouse CT26 cells assessed as changes in body weight at 1 mg/kg, iv for 14 consecutive days starting from day 8 post tumor implantation; assay type: organism-based; settings: in vivo
[38] = system: HCT-116; assay: Induction of apoptosis in human HCT116 cells assessed as live cells at 10 uM after 24 hrs in presence of autophagy inhibitor 3-MA by annexin V-FITC/propidium iodide staining based flow cytometry (reference value: 89.97%); assay type: functional
[39] = system: HCT-116; assay: Induction of apoptosis in human HCT116 cells assessed as early apoptotic cells at 10 uM after 24 hrs in presence of pan-caspase inhibitor Z-VAD-FMK by annexin V-FITC/propidium iodide staining based flow cytometry (reference value: 4.1%); assay type: functional
[40] = system: HCT-116; assay: Antimigratory activity against human HCT116 cells after 24 hrs by crystal violet staining based transwell assay; assay type: functional, cell-based

IC50 ([16]; CT26, 24 h): 11.6 µM
Drug uptake [21]: Dose-dependent effect and Tde
IC50 [29]: 12 µM
SMILES: Cl.Cl.Cl.NCCCCNCCCCNCCCCN1C(=O)c2cccc3cccc1c23
Activity [1]: Active
Activity [2]: Active
Activity [3]: inactive
Activity [4]: 13.6%
Activity [5]: 2.97%
Activity [6]: Dose-dependent effect
Activity [7]: 7.21%
Activity [8]: 8.07%
Activity [9]: Dose-dependent effect
Activity [10]: inactive
Activity [11]: Active
Activity [12]: Dose-dependent effect
Activity [13]: 38.14%
Activity [14]: Dose-dependent effect
inhibition in vivo at 1 mg/kg [15]: 46.9%
growth inhibition (GI) [16]: Dose-dependent effect
Activity [17]: Non-Toxic
Activity [18]: 27.36%
Activity [19]: 3.56%
Activity [20]: Dose-dependent effect
Activity [22]: Dose-dependent effect
Activity [23]: Dose-dependent effect
Activity [24]: Active
Activity [25]: Dose-dependent effect
Activity [26]: Active
Activity [27]: inactive
Activity [28]: Dose-dependent effect
Activity [30]: Dose-dependent effect
inhibition in vivo at 1 mg/kg [31]: 82.5%
Activity [32]: Dose-dependent effect
Activity [33]: 23.22%
Activity [34]: inactive
Activity [35]: Dose-dependent effect
Activity [36]: Dose-dependent effect
Activity [37]: Non-Toxic
Activity [38]: 56.54%
Activity [39]: 11.4%
Activity [40]: Dose-dependent effect
